Laboratory results published in US20220105234A1, “ADHESIVE FOR OSSEOINTEGRATED PERCUTANEOUS DEVICES” (Regents of the University of Minnesota, priority 2020, published 2022).
Where no end group is shown, it is not given here. [ ]: non-standard residue; d: D form.

Tested on: S. aureus
Assay: LIVE/DEAD assay of bacterial membrane integrity
Assay type: cell-based, Staphylococcus aureus
Details: SYTO 9 / propidium iodide stain
Description: Assessing the antibacterial activity of GL13K-loaded MSNs against Staphylococcus aureus (USA300, MRSA strain). Overnight culture of S. aureus, USA300 prepared in tryptic soy broth (TSB, DF0370-17-3, Fisher Scientific) were used for assessing the antibacterial activity of AMP-loaded MSNs. USA300 is one of the primary causatives of implant associated infection and implant failure. The optical density of the overnight culture was adjusted to 0.05 and treated with different concentrations of AMP-loaded MSN and AMP alone and MSN (without AMP) and PBS (vehicle control) was used as positive and negative controls. The bacteria was cultured for 24 h under different conditions and metabolic activity tested using BacTiter-Glo™ microbial cell viability assay. The assay was performed using manufacturer's instruction and metabolic activity was measured by luminescence which was measured using microplate reader (Synergy HT, Biotek). […] FIGS. 7A-7C show metabolic activity of USA300 cultured in presence of AMP-loaded MSNs, MSN alone and AMP added directly to the bacterial suspension. Values on x-axis correspond to the loaded AMP concentration.
Overnight culture of S. aureus was treated the same was using method discussed for FIGS. 7A-7C. A LIVE/DEAD assay was performed to visualize cell colonization of surfaces and membrane integrity of all experimental groups. […]

Substance: D-GL13K (G[dK][dI][dI][dK][dL][dK][dA][dS][dL][dK][dL][dL]) [AMP]
- membrane-compromised bacteria (antibacterial capability): significant membrane-compromised bacteria
